Test results taken from article PMC12254266, “Multicolored sequential resonance energy transfer for detection of simultaneous ligand binding at G protein-coupled receptors” (Nature Communications, 2025).
Values joined by “and” are separate entries in the source; they are usually repeats but may differ in a detail not shown here. Equal entries are not always repeated. Where two headings read alike, the source gives them in different places. Each block holds one compound with its values, some of them ahead of it.

What was measured:
Nluc-FFA1 = target: T1, Nluc-FFA1 (Homo sapiens, UniProt O14842); assay: NanoBRET binding (saturation, competition, kinetics) at N terminal Nluc tagged FFA1; conditions: for Specific BRET (690/450)%: Figure 4Ci; for Specific BRET (690/450)% / Specific BRET (540/450)%: technical duplicates; for Specific BRET (540/450)%: Figure 4Cii
T1 construct: expressed in transfected cells
T1 sequence (O14842 whole entry): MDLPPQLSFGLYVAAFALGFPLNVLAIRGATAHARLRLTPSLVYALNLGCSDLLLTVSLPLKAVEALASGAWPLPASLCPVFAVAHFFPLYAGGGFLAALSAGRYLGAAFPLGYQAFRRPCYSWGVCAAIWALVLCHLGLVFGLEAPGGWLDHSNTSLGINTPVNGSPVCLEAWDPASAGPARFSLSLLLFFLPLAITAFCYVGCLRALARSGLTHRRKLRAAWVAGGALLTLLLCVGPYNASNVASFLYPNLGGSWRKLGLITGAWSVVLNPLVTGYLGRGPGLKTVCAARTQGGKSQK

FFA1-Nluc [1] = target: T2, FFA1-Nluc (Homo sapiens, UniProt O14842); assay: NanoBRET binding (saturation, kinetics) at C terminal Nluc tagged FFA1; parameters: expressed in transfected cells; conditions: FFA1-Nluc, 95% confidence interval in parentheses
T2 sequence (O14842 whole entry): as above
Experimental: Nluc-FFA1 or FFA1-Nluc Flp-In T-REx 293 cells were plated at 50,000 cells per well in poly-D-lysine coated white 96-well plates. Cells were cultured for 24 h in the plate before medium was replaced with medium containing 100 ng/mL of doxycycline to induce receptor expression. After culturing for a further 24 h, medium was removed, cells were washed with HBSS and incubated in HBSS for 30 min. To start the assay, NanoGlo substrate (Promega, N1110) was added to the cells at a 1:800 final dilution and incubated for 10 min at 37 °C. For endpoint assays, including both saturation and competition binding, test ligands were then added, including both fluorescent and unlabelled competing ligands as indicated, and plates incubated for a further 5 min at 37 °C. NanoBRET was then quantified in a CLARIOstar microplate reader (BMG Labtech) by measuring luminescent emission with the monochrometer set for the Nluc donor at 450–60 nm, and acceptor luminescent emission 540–60 nm (NBD), 600–80 nm (Cy3.5) or 690–100 nm (SulfoCy5), depending on which fluorophore was being tested. The acceptor/donor BRET ratio was then taken as a measure of fluorophore binding. For kinetic on then off NanoBRET experiments plates were washed the same way and substrate was added to the same concentration. However, 10 min after substrate was added plates were inserted into the CLARIOstar microplate reader set to 25 °C to take repeated measurements of luminescent emission for both the donor and the acceptor fluorophore being used. After 5 min of background measurements, the indicated concentration of fluorescent ligand was added using the plate reader injector and luminescent emission was monitored for ~10 min before the reader was paused to manually add a high concentration of appropriate competing ligand to initiate dissociation. The plate was returned to the reader and luminescence measurements were continued for a further 30 min to monitor dissociation of the fluorescent ligand. For kinetic experiments using multiple concentrations of fluorescent ligand, cells were placed in the plate reader immediately after the addition of Nano-Glo substrate and luminescent measurements were taken. After 5 min, the reader was paused to add the indicated concentrations of fluorescent ligand, before measurements were continued. To set non-specific binding for kinetic experiments, the indicated competing ligand was added 5 min before the addition of the fluorescent ligand.

FFA1-Nluc [2] = target: T2, FFA1-Nluc; assay: Ca2+ mobilisation antagonism of FFA1 agonists (TUG-905, T360) in Flp-In T-REx 293 cells expressing FFA1-Nluc; format: cell-based; parameters: expressed in transfected cells
Experimental: Nluc-FFA1, FFA1-Nluc or untagged FFA1 Flp-In T-REx 293 cells were plated at 50,000 cells per well in poly-D-lysine coated black clear bottom 96-well plates. Cells were then cultured for 24 h until reaching confluency before culture medium was replaced with medium containing 100 ng/mL of doxycycline to induce receptor expression. Cells were cultured for a further 24 h before the assay. On the day of the assay culture medium was removed and replaced with medium containing 3 μM Fura2-AM Ca^2+ dye. […] Fura2 fluorescent emission at 520 nm following excitation with each of 340 and 380 nm was measured in regular intervals both before and after adding test compounds for a total of 90 s per well. Calcium responses were determined by taking the peak 340/380 ratio after first subtracting the ratios obtained prior to addition of test compound. […]
Ca2+ mobilization responses were measured in
Flp-In T-REx 293 cells expressing FFA1-Nluc. Ca2+ responses to increasing concentrations
pre-treated with 10 μM PPTQ. The mode of antagonism for PPTQ was assessed by
N=3 (A-D, F, H) or N=4 (E, G) independent experiments. S ource data are provided as a […]

[3] = Nluc-FFA1, multiple concentration of labelled ligand association model

Kd (Nluc-FFA1; Nluc-FFA1, 95% confidence interval in parentheses, read-out: Kd, saturation BRET binding): 210 nM
kOn Nano-BRET (Nluc-FFA1; Nluc-FFA1, association then dissociation model): 26666.67 M⁻¹ s⁻¹
kOff Nano-BRET (Nluc-FFA1; Nluc-FFA1, association then dissociation model, TUG-2591 100 nM then TUG-905 10 μM, or TUG-2597 […] then T360 10 μM): 0.00683 s⁻¹
Kd (Nluc-FFA1; Nluc-FFA1, association then dissociation model, read-out: Kd Nano-BRET (kinetic)): 250 nM
kOff Nano-BRET Multiple Concentration (Nluc-FFA1; [3]): 0.0207 s⁻¹
kOn Nano-BRET Multiple Concentration (Nluc-FFA1; [3]): 125000 M⁻¹ s⁻¹
Kd (Nluc-FFA1; Nluc-FFA1, read-out: Kd Nano-BRET Multiple Concentration (kinetic)): 170 nM
BMax, saturation BRET binding (Nluc-FFA1; Nluc-FFA1, specific BRET, 95% confidence interval in parentheses): 0.31 (0.27-0.37)
kOff Nano-BRET Allosterism, Nluc-FFA1 (Nluc-FFA1; TUG-2591 (1 μM) in the presence of T360 (30μM), TUG-2597 (1 μM) in the presence of TUG-905 (30μM), 95% CI in parentheses): 0.034 (0.032-0.035) min-1
Kd (Nluc-FFA1; footnotes of Supplementary Table 3, read-out: Kd values obtained in NanoBRET saturation experiments (used for pKi) (converted)): 200 nM
off-rate, times faster in single ligand NanoBRET compared with dual ligand DISCo-BRET (Nluc-FFA1; ratio of off-rates): ~ 10
Kd (FFA1-Nluc [1]; read-out: Kd, saturation BRET binding): 23 nM
BMax, saturation BRET binding (FFA1-Nluc [1]; specific BRET): 0.035 (0.032−0.038)
Structure (SMILES): Cc1cc(OCCCNC(=O)CCCN2\C(=C/C=C/C=C/C3=[N+](C)c4ccc(S(=O)(=O)[O-])cc4C3(C)C)C(C)(C)c3ccccc32)ccc1-c1cccc(COc2ccc(CCC(=O)O)c(F)c2)c1 [TUG-2591]

Ca2% Response (%) (FFA1-Nluc [2]; log[T360] -8, 10 μΜ (antagonist not given), Sup Figure 6F): 1.71% and -1.05% and -0.90%
Ca2% Response (%) (FFA1-Nluc [2]; log[T360] -8, column head 1.0 μM (antagonist not given), Sup Figure 6F): -0.81% and -3.31% and 3.71% and 5.53%
'bottom' of the IC50 curve fit, Nano-BRET TUG-2591 (Nluc-FFA1; percentage of binding in the absence of competing ligand, tracer TUG-2591 100 nM): 150%
'bottom' of the IC50 curve fit, Nano-BRET TUG-2597 (Nluc-FFA1; percentage of binding in the absence of competing ligand, tracer TUG-2597 […]): 5.3%
pIC50 Nano-BRET TUG-2597 (Nluc-FFA1; tracer TUG-2597 […], NBD/Nluc): 7.1±0.03
pKi Nano-BRET TUG-2597 (Nluc-FFA1; using Kd TUG-2597 380 nM): 7.4±0.03
Structure (SMILES): COc1ccc(CCCC(C)(C)C)c(N2CCC(COc3cccc(C(CC(=O)O)C4CC4)c3)CC2)c1.O=C(O)C(F)(F)F (stereo not shown) [T360]
Ca2% Response (%) (FFA1-Nluc [2]; log[T360] -5, Veh (no antagonist), Sup Figure 6B/6D): 93.75% and 106.25% and 103.05% and 96.95%
Ca2% Response (%) (FFA1-Nluc [2]; log[T360] -5, with 1 μM GW1100): 103.36% and 82.58% and 106.13% and 87.84% and 101.04% and 85.87%
Ca2% Response (%) (FFA1-Nluc [2]; log[T360] -6, 10 μΜ (antagonist not given), Sup Figure 6F): 76.18% and 67.98% and 49.56% and 55.62% and 87.66% and 92.64%
Ca2% Response (%) (FFA1-Nluc [2]; log[T360] -6, Veh (no antagonist), Sup Figure 6B/6D): 104.34% and 101.89% and 110.55% and 104.28% and 99.18% and 100.82%
Ca2% Response (%) (FFA1-Nluc [2]; log[T360] -6, Veh (no antagonist), Sup Figure 6F): 99.06% and 95.34% and 97.85% and 90.61% and 102.43% and 99.32%
Ca2% Response (%) (FFA1-Nluc [2]; log[T360] -6, column head 1.0 μM (antagonist not given), Sup Figure 6F): 76.88% and 59.19% and 87.71% and 76.79% and 92.25% and 102.12%
Ca2% Response (%) (FFA1-Nluc [2]; log[T360] -6, with 1 μM GW1100): 91.67% and 83.66% and 88.97% and 81.49% and 113.97% and 109.62%
Ca2% Response (%) (FFA1-Nluc [2]; log[T360] -6.5, Veh (no antagonist), Sup Figure 6F): 94.10% and 96.59% and 92.66% and 91.86% and 93.32% and 89.24%
Ca2% Response (%) (FFA1-Nluc [2]; log[T360] -6.5, column head 1.0 μM (antagonist not given), Sup Figure 6F): 60.34% and 48.04% and 59.96% and 55.53% and 61.67% and 49.63%
Ca2% Response (%) (FFA1-Nluc [2]; log[T360] -7, Veh (no antagonist), Sup Figure 6B/6D): 82.83% and 93.76% and 57.76% and 86.64% and 99.93%
Ca2% Response (%) (FFA1-Nluc [2]; log[T360] -7, Veh (no antagonist), Sup Figure 6F): 93.07% and 80.87% and 91.43% and 68.96% and 59.63% and 63.91%
Ca2% Response (%) (FFA1-Nluc [2]; log[T360] -7, column head 1.0 μM (antagonist not given), Sup Figure 6F): 3.96% and 7.11% and 12.73% and 6.84% and 9.24% and 5.08%
Ca2% Response (%) (FFA1-Nluc [2]; log[T360] -9, Veh (no antagonist), Sup Figure 6B/6D): 2.38% and -2.45% and 0.48% and 0.09% and -1.34% and 1.34%
Ca2% Response (%) (FFA1-Nluc [2]; log[T360] -11, Veh (no antagonist), Sup Figure 6B/6D): -3.34% and -2.39% and -1.53% and 0.46% and 1.72% and -0.55%
Specific BRET (690/450)% (Nluc-FFA1; log[Ligand] -5): 144.71% and 144.91% and 150.40% and 149.82% and 134.29% and 145.90%
Specific BRET (690/450)% (Nluc-FFA1; log[Ligand] -5.5): 150.41% and 165.34% and 156.87% and 151.43% and 153.00% and 148.40%
Specific BRET (690/450)% (Nluc-FFA1; log[Ligand] -6): 147.37% and 160.23% and 150.08% and 152.06% and 150.91% and 153.01%
Specific BRET (690/450)% (Nluc-FFA1; log[Ligand] -6.5): 152.25% and 156.48% and 155.51% and 156.07% and 157.69% and 151.71%
Specific BRET (690/450)% (Nluc-FFA1; log[Ligand] -7): 145.58% and 149.69% and 148.14% and 147.21% and 151.85% and 147.91%
Specific BRET (690/450)% (Nluc-FFA1; log[Ligand] -8): 131.96% and 136.95% and 136.24% and 131.47% and 126.78% and 129.57%
Specific BRET (690/450)% (Nluc-FFA1; log[Ligand] -9): 110.80% and 118.14% and 114.71% and 107.71% and 113.55% and 115.30%
Specific BRET (690/450)% (Nluc-FFA1; log[Ligand] -10): 99.19% and 105.01% and 94.99% and 98.91% and 101.09% and 100.81%
Specific BRET (540/450)% (Nluc-FFA1; log[Ligand] -6.5): 37.02% and 22.26% and 31.97% and 27.51% and 29.14% and 29.84% and 21.82% and 24.91%
Specific BRET (540/450)% (Nluc-FFA1; log[Ligand] -7): 53.44% and 33.59% and 38.71% and 49.07% and 47.92% and 48.08% and 44.12% and 39.90%
Specific BRET (540/450)% (Nluc-FFA1; log[Ligand] -8): 84.61% and 81.81% and 70.02% and 81.70% and 81.41% and 76.64% and 80.12%
Specific BRET (540/450)% (Nluc-FFA1; log[Ligand] -9): 105.73% and 99.36% and 90.61% and 103.73% and 98.31% and 99.33% and 93.77%
Specific BRET (540/450)% (Nluc-FFA1; log[Ligand] -10): 104.20% and 95.80% and 91.09% and 108.91% and 101.37% and 98.63% and 98.32% and 101.68%
